Assay results: the NIST ThermoML archive (doi:10.1021/je500448j)
± gives the expanded uncertainty stated by the source.

Details: 298.15 K; 101.33 kPa; Liquid; Vibrating tube method

| SMILES | mass density [kg/m3] |
| --- | --- |
| CN(C)c1ccccc1 [N,N-dimethylaniline] | 952.05 ± 0.23 |
| Nc1ccccc1 [aniline] | 1017.39 ± 0.09 |
